Laboratory results published in patent publication US8859574B2 (IRM LLC, priority 2008, dated 2014).

The molecules below were run against T1, IGF-1R Ba/F3 (Homo sapiens, UniProt P08069) (assay: Ba/F3 Cell Viability Inhibition Assay (IGF-1R Ba/F3)). Details: Tel-TK transformed Ba/F3 cells, 48 hours, Britelite luminescence.
T1 construct: fused on or other part: TEL- (or BCR-) IGF-1R in Ba/F3: the kinase part holds the site
Assay type: cell-based, murine
Method in brief: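 IL-3-independent murine Ba/F3 cells transformed with a TEL/BCR-fused IGF-1R kinase were seeded at 3750 cells/well and exposed to serially diluted compound for 48 h at 37 °C. Viability was read by Britelite luminescence. IC50 is the concentration giving 50% of DMSO-control viability, from a logistic fit.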

T1 sequence (P08069 999-1274 limits assumed): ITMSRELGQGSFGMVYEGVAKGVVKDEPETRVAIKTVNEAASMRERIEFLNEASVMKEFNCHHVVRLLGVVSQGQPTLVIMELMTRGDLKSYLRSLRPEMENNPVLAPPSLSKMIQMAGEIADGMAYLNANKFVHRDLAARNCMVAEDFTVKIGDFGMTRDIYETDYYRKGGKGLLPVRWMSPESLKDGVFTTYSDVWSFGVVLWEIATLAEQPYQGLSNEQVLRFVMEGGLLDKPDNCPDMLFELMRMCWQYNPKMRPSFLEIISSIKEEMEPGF

SMILES | IC50 [nM]
CCc1cc(Nc2nc(Nc3cc(C)c(C4CCN(C5CS(=O)(=O)C5)CC4)cc3F)ncc2Cl)n[nH]1 [Compound 264, 5-Chloro-N2-{4-[1-(1,1-dioxo-1λ6-thietan-3-yl)-piperidin-4-yl]-2-fluoro-5-methyl-phenyl}-N4-(5-ethyl-1H-pyrazol-3-yl)-pyrimidine-2,4-diamine] | 21
Cc1cc(Nc2nc(Nc3cc(C)c(C4CCN(C(=O)c5nc(C(C)C)no5)CC4)cc3F)ncc2Cl)n[nH]1 [Compound 265, (4-(4-(5-Chloro-4-(5-methyl-1H-pyrazol-3-ylamino)pyrimidin-2-ylamino)-5-fluoro-2-methylphenyl)piperidin-1-yl)(3-isopropyl-1,2,4-oxadiazol-5-yl)methanone] | 91
Cc1cc(Nc2nc(Nc3cc(C)c(C4CCN(Cc5noc(C(C)(C)C)n5)CC4)cc3C)ncc2Cl)n[nH]1 [Compound 266, N2-(4-(1-((5-tert-butyl-1,2,4-oxadiazol-3-yl)methyl)piperidin-4-yl)-2,5-dimethylphenyl)-5-chloro-N4-(5-methyl-1H-pyrazol-3-yl)pyrimidine-2,4-diamine] | 25
Cc1cc(Nc2nc(Nc3cc(C)c(C4CCN(Cc5noc(C(C)(C)C)n5)CC4)cc3F)ncc2Cl)n[nH]1 [Compound 267, N2-(4-(1-((5-tert-butyl-1,2,4-oxadiazol-3-yl)methyl)piperidin-4-yl)-2-fluoro-5-methylphenyl)-5-chloro-N4-(5-methyl-1H-pyrazol-3-yl)pyrimidine-2,4-diamine] | 77
CCc1cc(Nc2nc(Nc3cc(C)c(C4CCN(CC)CC4)cc3F)ncc2Cl)n[nH]1 [Compound 268, 5-chloro-N4-(5-ethyl-1H-pyrazol-3-yl)-N2-(4-(1-ethylpiperidin-4-yl)-2-fluoro-5-methylphenyl)pyrimidine-2,4-diamine] | 22
Cc1cc(Nc2nc(Nc3cc(C)c(C4CCN(CCc5nc(C(C)C)no5)CC4)cc3C)ncc2Cl)n[nH]1 [Compound 269, 5-Chloro-N2-(4-(1-(2-(3-isopropyl-1,2,4-oxadiazol-5-yl)ethyl)piperidin-4-yl)-2,5-dimethylphenyl)-N4-(5-methyl-1H-pyrazol-3-yl)pyrimidine-2,4-diamine] | 39
Cc1cc(Nc2nc(Nc3cc(C)c(C4CCN(C(=O)c5nc(C(C)C)no5)CC4)cc3C)ncc2Cl)n[nH]1 [Compound 270, (4-(4-(5-chloro-4-(5-methyl-1H-pyrazol-3-ylamino)pyrimidin-2-ylamino)-2,5-dimethylphenyl)piperidin-1-yl)(3-isopropyl-1,2,4-oxadiazol-5-yl)methanone] | 18
CCc1cc(Nc2nc(Nc3cc(C)c(C4CCN(C)CC4)cc3F)ncc2Cl)n[nH]1 [Compound 271, 5-chloro-N4-(5-ethyl-1H-pyrazol-3-yl)-N2-(2-fluoro-5-methyl-4-(1-methylpiperidin-4-yl)phenyl)pyrimidine-2,4-diamine] | 13
Cc1cc(Nc2nc(Nc3cc(C)c(C4CCN(C5CCC5)CC4)cc3F)ncc2Cl)n[nH]1 [Compound 272, 5-chloro-N2-(4-(1-cyclobutylpiperidin-4-yl)-2-fluoro-5-methylphenyl)-N4-(5-methyl-1H-pyrazol-3-yl)pyrimidine-2,4-diamine] | 50
Cc1cc(Nc2nc(Nc3cc(C)c(C4CCNC(C)C4)cc3F)ncc2Cl)n[nH]1 (stereo not shown) [Compound 273, 5-chloro-N2-(2-fluoro-5-methyl-4-(2-methylpiperidin-4-yl)phenyl)-N4-(5-methyl-1H-pyrazol-3-yl)pyrimidine-2,4-diamine] | 18
Cc1cc(Nc2nc(Nc3cc(C)c(C4CCN(CC(N)=O)C(C)C4)cc3F)ncc2Cl)n[nH]1 (stereo not shown) [Compound 274, 2-(4-(4-(5-chloro-4-(5-methyl-1H-pyrazol-3-ylamino)pyrimidin-2-ylamino)-5-fluoro-2-methylphenyl)-2-methylpiperidin-1-yl)acetamide] | 6
Cc1cc(Nc2nc(Nc3cc(C)c(C4CCN(C)C(C)C4)cc3F)ncc2Cl)n[nH]1 (stereo not shown) [Compound 275, 5-chloro-N2-(4-(1,2-dimethylpiperidin-4-yl)-2-fluoro-5-methylphenyl)-N4-(5-methyl-1H-pyrazol-3-yl)pyrimidine-2,4-diamine] | 9
Cc1cc(Nc2nc(Nc3cc(C)c(C4CCN(C5CCNCC5)CC4)cc3F)ncc2Cl)n[nH]1 [Compound 276, N2-(4-(1,4′-bipiperidin-4-yl)-2-fluoro-5-methylphenyl)-5-chloro-N4-(5-methyl-1H-pyrazol-3-yl)pyrimidine-2,4-diamine] | 437
Cc1ccc(N2CCC(c3cc(F)c(Nc4ncc(Cl)c(Nc5cc(C)[nH]n5)n4)cc3C)CC2)nn1 [Compound 277, 5-Chloro-N2-(2-fluoro-5-methyl-4-(1-(6-methylpyridazin-3-yl)piperidin-4-yl)phenyl)-N4-(5-methyl-1H-pyrazol-3-yl)pyrimidine-2,4-diamine] | 97
Cc1cc(Nc2nc(Nc3cc(C)c(C4CCN(C5CCN(S(C)(=O)=O)CC5)CC4)cc3F)ncc2Cl)n[nH]1 [Compound 278, 5-chloro-N2-(2-fluoro-5-methyl-4-(1′-(methylsulfonyl)-1,4′-bipiperidin-4-yl)phenyl)-N4-(5-methyl-1H-pyrazol-3-yl)pyrimidine-2,4-diamine] | 9
Cc1cc(Nc2nc(Nc3cc(C)c(C4CCN(Cc5ccccn5)CC4)cc3F)ncc2Cl)n[nH]1 [Compound 281, 5-chloro-N2-(2-fluoro-5-methyl-4-(1-(pyridin-2-ylmethyl)piperidin-4-yl)phenyl)-N4-(5-methyl-1H-pyrazol-3-yl)pyrimidine-2,4-diamine] | 87
Cc1cc(Nc2nc(Nc3cc(C)c(C4CCN(C5=CC(=O)CC5)CC4)cc3F)ncc2Cl)n[nH]1 [Compound 282, 3-(4-(4-(5-Chloro-4-(5-methyl-1H-pyrazol-3-ylamino)pyrimidin-2-ylamino)-5-fluoro-2-methylphenyl)piperidin-1-yl)cyclopent-2-en-one] | 48
Cc1cc(Nc2nc(Nc3cc(C)c(C4CCN(C5CCC6(CC5)OCCO6)CC4)cc3F)ncc2Cl)n[nH]1 [Compound 283, N2-(4-(1-(1,4-dioxaspiro[4.5]decan-8-yl)piperidin-4-yl)-2-fluoro-5-methylphenyl)-5-chloro-N4-(5-methyl-1H-pyrazol-3-yl)pyrimidine-2,4-diamine] | 16
CCc1noc(CN2CCC(c3cc(F)c(Nc4ncc(Cl)c(Nc5cc(C)[nH]n5)n4)cc3C)CC2)n1 [Compound 284, 5-chloro-N2-(4-(1-((3-ethyl-1,2,4-oxadiazol-5-yl)methyl)piperidin-4-yl)-2-fluoro-5-methylphenyl)-N4-(5-methyl-1H-pyrazol-3-yl)pyrimidine-2,4-diamine] | 33
Cc1cc(Nc2nc(Nc3cc(C)c(C4CCN(Cc5noc(C(C)C)n5)CC4)cc3F)ncc2Cl)n[nH]1 [Compound 285, 5-chloro-N2-(2-fluoro-4-(1-((5-isopropyl-1,2,4-oxadiazol-3-yl)methyl)piperidin-4-yl)-5-methylphenyl)-N4-(5-methyl-1H-pyrazol-3-yl)pyrimidine-2,4-diamine] | 68
Cc1cc(Nc2nc(Nc3cc(C#N)c(C4CCN(C)CC4)cc3C)ncc2Cl)n[nH]1 [Compound 286, 5-(5-chloro-4-(5-methyl-1H-pyrazol-3-ylamino)pyrimidin-2-ylamino)-4-methyl-2-(1-methylpiperidin-4-yl)benzonitrile] | 37
COC(=O)c1cc(Nc2ncc(Cl)c(Nc3cc(C)[nH]n3)n2)c(C)cc1C1CCN(C)CC1 [Compound 287, methyl 5-(5-chloro-4-(5-methyl-1H-pyrazol-3-ylamino)pyrimidin-2-ylamino)-4-methyl-2-(1-methylpiperidin-4-yl)benzoate] | 27
Cc1cc(Nc2nc(Nc3cc(C)c(C4CCN(Cc5ccncc5)CC4)cc3F)ncc2Cl)n[nH]1 [Compound 288, 5-chloro-N2-(2-fluoro-5-methyl-4-(1-(pyridin-4-ylmethyl)piperidin-4-yl)phenyl)-N4-(5-methyl-1H-pyrazol-3-yl)pyrimidine-2,4-diamine] | 93
CC[N+]1([O-])CCC(c2cc(F)c(Nc3ncc(Cl)c(Nc4cc(C)[nH]n4)n3)cc2C)CC1 (stereo not shown) [Compound 289, 4-(4-(5-chloro-4-(5-methyl-1H-pyrazol-3-ylamino)pyrimidin-2-ylamino)-5-fluoro-2-methylphenyl)-1-ethylpiperidine-1-oxide] | 370
Cc1cc(Nc2nc(Nc3cc(C)c(C4CCN(C5CCC(=O)CC5)CC4)cc3F)ncc2Cl)n[nH]1 [Compound 290, 4-(4-(4-(5-chloro-4-(5-methyl-1H-pyrazol-3-ylamino)pyrimidin-2-ylamino)-5-fluoro-2-methylphenyl)piperidin-1-yl)cyclohexanone] | 23
Cc1cc(Nc2nc(Nc3cc(C)c(C4CCN(C5CCN(C(=O)OC(C)(C)C)C5)CC4)cc3F)ncc2Cl)n[nH]1 (stereo not shown) [Compound 291, tert-butyl 3-(4-(4-(5-chloro-4-(5-methyl-1H-pyrazol-3-ylamino)pyrimidin-2-ylamino)-5-fluoro-2-methylphenyl)piperidin-1-yl)pyrrolidine-1-carboxylate] | 67
Cc1cc(Nc2nc(Nc3cc(C)c(C4CCN(Cc5noc(C)n5)CC4)cc3F)ncc2Cl)n[nH]1 [Compound 292, 5-chloro-N2-(2-fluoro-5-methyl-4-(1-((5-methyl-1,2,4-oxadiazol-3-yl)methyl)piperidin-4-yl)phenyl)-N4-(5-methyl-1H-pyrazol-3-yl)pyrimidine-2,4-diamine] | 23
Cc1noc(CN2CCC(c3cc(F)c(Nc4ncc(Cl)c(Nc5cc(C)[nH]n5)n4)cc3C)CC2)n1 [Compound 293, 5-chloro-N2-(2-fluoro-5-methyl-4-(1-((3-methyl-1,2,4-oxadiazol-5-yl)methyl)piperidin-4-yl)phenyl)-N4-(5-methyl-1H-pyrazol-3-yl)pyrimidine-2,4-diamine] | 26
